{"source": "patent US11214594B2", "about": "“Antimicrobial peptide having synergistic antibacterial effect with antibiotics on multidrug resistant bacteria, and use thereof” (priority 2016, dated 2022)", "key": {"MDREC 1238": {"system": "MDREC 1238", "format": "cell-based, Escherichia coli", "procedure,_shortened": "(§1)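 Each strain is brought to 2×10^6 CFU in nutrient-sufficient Mueller-Hinton medium and dispensed into wells. Peptide solutions, stepwise diluted 2:1 in the same medium, are then added. The minimal concentration preventing growth gives the MIC.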"}, "P. aeruginosa": {"system": "P. aeruginosa", "assay": "microbe, parasite or virus in culture", "format": "cell-based, Pseudomonas aeruginosa", "procedure,_shortened": "as §1"}, "MDRPA 2003": {"system": "MDRPA 2003", "format": "cell-based, Pseudomonas aeruginosa", "procedure,_shortened": "as §1"}, "MDRAB 12036": {"system": "MDRAB 12036", "format": "cell-based, Acinetobacter baumannii", "procedure,_shortened": "as §1"}, "MDRST 8009": {"system": "MDRST 8009", "format": "cell-based, Salmonella typhimurium", "conditions": "agent alone", "procedure,_shortened": "as §1"}, "S. epidermidis": {"system": "S. epidermidis", "assay": "microbe, parasite or virus in culture", "format": "cell-based, Staphylococcus epidermidis", "procedure,_shortened": "as §1"}, "MDREC 1229": {"system": "MDREC 1229", "assay": "MIC of antibiotic during combined treatment with antimicrobial peptide", "format": "cell-based, Escherichia coli", "procedure,_shortened": "(§2)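 Strains in MH medium at 2×10^6 CFU/ml were mixed with peptide diluted stepwise (2:1) from its MIC, then antibiotic dilutions in MH medium were added to give the antibiotic MIC. The reversed set-up, peptide titrated against fixed antibiotic, gave the peptide MIC.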"}, "A. baumannii": {"system": "A. baumannii", "assay": "MIC of antibiotic during combined treatment with antimicrobial peptide", "format": "cell-based, Acinetobacter baumannii", "conditions": "A. baumannii", "procedure,_shortened": "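Read-out is the MIC of each combined solution, obtained from MH-medium dilutions of antibiotic added well by well, with a reversed-condition run as well.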"}, "MDRAB 12035": {"system": "MDRAB 12035", "assay": "MIC of antibiotic during combined treatment with antimicrobial peptide", "format": "cell-based, Acinetobacter baumannii", "procedure,_shortened": "as §2"}, "[1]": {"conditions": "peptide treatment concentration 1 μg/ml"}, "[2]": {"conditions": "peptide treatment concentration 2 μg/ml"}, "[3]": {"conditions": "peptide treatment concentration 4 μg/ml"}, "[4]": {"conditions": "peptide treatment concentration 6 μg/ml"}, "[5]": {"conditions": "peptide treatment concentration 8 μg/ml"}, "[6]": {"conditions": "peptide treatment concentration 16 μg/ml"}, "[7]": {"conditions": "peptide treatment concentration 32 μg/ml"}, "[8]": {"conditions": "peptide treatment concentration 64 μg/ml"}, "[9]": {"conditions": "combined with peptide at 1 μg/ml"}, "[10]": {"conditions": "combined with peptide at 2 μg/ml"}, "[11]": {"conditions": "combined with peptide at 4 μg/ml"}, "[12]": {"conditions": "combined with peptide at 6 μg/ml"}, "[13]": {"conditions": "combined with peptide at 8 μg/ml"}, "[14]": {"conditions": "combined with peptide at 16 μg/ml"}, "[15]": {"conditions": "combined with peptide at 32 μg/ml"}, "[16]": {"conditions": "combined with peptide at 64 μg/ml"}}, "note": "Where a SMILES comes first, the peptide text is derived from it."}
{"smiles": "CC[C@H](C)[C@H](NC(=O)[C@H](CCCCN)NC(=O)[C@H](Cc1c[nH]c2ccccc12)NC(=O)[C@@H](N)CCCNC(=N)N)C(=O)N[C@@H](Cc1ccccc1)C(=O)N[C@@H](CCCCN)C(=O)N[C@@H](CCCCN)C(=O)N[C@H](C(=O)N1CCC[C@H]1C(=O)N[C@@H](CCCCN)C(=O)N[C@@H](Cc1ccccc1)C(=O)N[C@@H](CC(C)C)C(=O)N[C@@H](Cc1c[nH]cn1)C(=O)N[C@@H](CO)C(=O)N[C@@H](C)C(=O)N[C@@H](CCCCN)C(=O)N[C@@H](CCCCN)C(=O)N[C@@H](Cc1ccccc1)C(N)=O)[C@@H](C)CC", "note": "[PapMA-1, RWK IFK KIP KFL HSA KKF-NH2] (H-RWKIFKKIPKFLHSAKKF-NH2; N-terminus assumed)", "values": [{"measurement": "Minimal inhibitory concentration MIC", "setting": "MDREC 1238", "value": 64, "unit": "µg/mL"}, {"measurement": "Minimal inhibitory concentration MIC", "setting": "P. aeruginosa", "value": 16, "unit": "µg/mL"}, {"measurement": "Minimal inhibitory concentration MIC", "setting": "MDRPA 2003", "value": 32, "unit": "µg/mL"}, {"measurement": "Minimal inhibitory concentration MIC", "setting": "MDRAB 12036", "value": 64, "unit": "µg/mL"}, {"measurement": "Minimal inhibitory concentration MIC", "setting": "MDRST 8009", "value": 64, "unit": "µg/mL"}, {"measurement": "Minimal inhibitory concentration MIC", "setting": "S. epidermidis", "value": ">128", "unit": "µg/mL"}, {"measurement": "Antibiotic MIC, Erythromycin", "setting": "MDREC 1229; [1]", "value": 128, "unit": "µg/mL"}, {"measurement": "Antibiotic MIC, Linezolid", "setting": "MDREC 1229; [1]", "value": ">128", "unit": "µg/mL"}, {"measurement": "Antibiotic MIC, Vancomycin", "setting": "MDREC 1229; [1]", "value": ">128", "unit": "µg/mL"}, {"measurement": "Antibiotic MIC, Erythromycin", "setting": "MDREC 1229; [2]", "value": 32, "unit": "µg/mL"}, {"measurement": "Antibiotic MIC, Linezolid", "setting": "MDREC 1229; [2]", "value": 128, "unit": "µg/mL"}, {"measurement": "Antibiotic MIC, Vancomycin", "setting": "MDREC 1229; [2]", "value": ">128", "unit": "µg/mL"}, {"measurement": "Antibiotic MIC, Erythromycin", "setting": "MDREC 1229; [3]", "value": 16, "unit": "µg/mL"}, {"measurement": "Antibiotic MIC, Linezolid", "setting": "MDREC 1229; [3]", "value": 64, "unit": "µg/mL"}, {"measurement": "Antibiotic MIC, Vancomycin", "setting": "MDREC 1229; [3]", "value": ">128", "unit": "µg/mL"}, {"measurement": "Antibiotic MIC, Erythromycin", "setting": "MDREC 1229; [4]", "value": 8, "unit": "µg/mL"}, {"measurement": "Antibiotic MIC, Linezolid", "setting": "MDREC 1229; [4]", "value": 64, "unit": "µg/mL"}, {"measurement": "Antibiotic MIC, Vancomycin", "setting": "MDREC 1229; [4]", "value": ">128", "unit": "µg/mL"}, {"measurement": "Antibiotic MIC, Erythromycin", "setting": "MDREC 1229; [5]", "value": 4, "unit": "µg/mL"}, {"measurement": "Antibiotic MIC, Linezolid", "setting": "MDREC 1229; [5]", "value": 32, "unit": "µg/mL"}, {"measurement": "Antibiotic MIC, Vancomycin", "setting": "MDREC 1229; [5]", "value": 128, "unit": "µg/mL"}, {"measurement": "Antibiotic MIC, Erythromycin", "setting": "MDREC 1229; [6]", "value": 1, "unit": "µg/mL"}, {"measurement": "Antibiotic MIC, Linezolid", "setting": "MDREC 1229; [6]", "value": 16, "unit": "µg/mL"}, {"measurement": "Antibiotic MIC, Vancomycin", "setting": "MDREC 1229; [6]", "value": 16, "unit": "µg/mL"}, {"measurement": "Antibiotic MIC, Erythromycin", "setting": "MDREC 1229; [7]", "value": 0.25, "unit": "µg/mL"}, {"measurement": "Antibiotic MIC, Linezolid", "setting": "MDREC 1229; [7]", "value": 8, "unit": "µg/mL"}, {"measurement": "Antibiotic MIC, Vancomycin", "setting": "MDREC 1229; [7]", "value": 8, "unit": "µg/mL"}, {"measurement": "Antibiotic MIC, Erythromycin", "setting": "MDREC 1229; [8]", "value": 0, "unit": "µg/mL"}, {"measurement": "Antibiotic MIC, Linezolid", "setting": "MDREC 1229; [8]", "value": 0, "unit": "µg/mL"}, {"measurement": "Antibiotic MIC, Vancomycin", "setting": "MDREC 1229; [8]", "value": 0, "unit": "µg/mL"}, {"measurement": "Antibiotic MIC, Erythromycin", "setting": "A. baumannii; [9]", "value": 32, "unit": "µg/mL"}, {"measurement": "Antibiotic MIC, Linezolid", "setting": "A. baumannii; [9]", "value": ">128", "unit": "µg/mL"}, {"measurement": "Antibiotic MIC, Vancomycin", "setting": "A. baumannii; [9]", "value": ">128", "unit": "µg/mL"}, {"measurement": "Antibiotic MIC, Erythromycin", "setting": "A. baumannii; [10]", "value": 16, "unit": "µg/mL"}, {"measurement": "Antibiotic MIC, Linezolid", "setting": "A. baumannii; [10]", "value": 128, "unit": "µg/mL"}, {"measurement": "Antibiotic MIC, Vancomycin", "setting": "A. baumannii; [10]", "value": 128, "unit": "µg/mL"}, {"measurement": "Antibiotic MIC, Erythromycin", "setting": "A. baumannii; [11]", "value": 8, "unit": "µg/mL"}, {"measurement": "Antibiotic MIC, Linezolid", "setting": "A. baumannii; [11]", "value": 32, "unit": "µg/mL"}, {"measurement": "Antibiotic MIC, Vancomycin", "setting": "A. baumannii; [11]", "value": 32, "unit": "µg/mL"}, {"measurement": "Antibiotic MIC, Erythromycin", "setting": "A. baumannii; [12]", "value": 2, "unit": "µg/mL"}, {"measurement": "Antibiotic MIC, Linezolid", "setting": "A. baumannii; [12]", "value": 32, "unit": "µg/mL"}, {"measurement": "Antibiotic MIC, Vancomycin", "setting": "A. baumannii; [12]", "value": 16, "unit": "µg/mL"}, {"measurement": "Antibiotic MIC, Erythromycin", "setting": "A. baumannii; [13]", "value": 0.5, "unit": "µg/mL"}, {"measurement": "Antibiotic MIC, Linezolid", "setting": "A. baumannii; [13]", "value": 8, "unit": "µg/mL"}, {"measurement": "Antibiotic MIC, Vancomycin", "setting": "A. baumannii; [13]", "value": 8, "unit": "µg/mL"}, {"measurement": "Antibiotic MIC, Erythromycin", "setting": "A. baumannii; [14]", "value": 0.125, "unit": "µg/mL"}, {"measurement": "Antibiotic MIC, Linezolid", "setting": "A. baumannii; [14]", "value": 4, "unit": "µg/mL"}, {"measurement": "Antibiotic MIC, Vancomycin", "setting": "A. baumannii; [14]", "value": 8, "unit": "µg/mL"}, {"measurement": "Antibiotic MIC, Erythromycin", "setting": "A. baumannii; [15]", "value": 0.0625, "unit": "µg/mL"}, {"measurement": "Antibiotic MIC, Linezolid", "setting": "A. baumannii; [15]", "value": 4, "unit": "µg/mL"}, {"measurement": "Antibiotic MIC, Vancomycin", "setting": "A. baumannii; [15]", "value": 2, "unit": "µg/mL"}, {"measurement": "Antibiotic MIC, Erythromycin", "setting": "A. baumannii; [16]", "value": 0, "unit": "µg/mL"}, {"measurement": "Antibiotic MIC, Linezolid", "setting": "A. baumannii; [16]", "value": 0, "unit": "µg/mL"}, {"measurement": "Antibiotic MIC, Vancomycin", "setting": "A. baumannii; [16]", "value": 0, "unit": "µg/mL"}, {"measurement": "Erythromycin MIC during combined treatment with peptide", "setting": "MDRAB 12035; [1]", "value": 32, "unit": "µg/mL"}, {"measurement": "Linezolid MIC during combined treatment with peptide", "setting": "MDRAB 12035; [1]", "value": ">128", "unit": "µg/mL"}, {"measurement": "Vancomycin MIC during combined treatment with peptide", "setting": "MDRAB 12035; [1]", "value": ">128", "unit": "µg/mL"}, {"measurement": "Erythromycin MIC during combined treatment with peptide", "setting": "MDRAB 12035; [2]", "value": 32, "unit": "µg/mL"}, {"measurement": "Linezolid MIC during combined treatment with peptide", "setting": "MDRAB 12035; [2]", "value": 128, "unit": "µg/mL"}, {"measurement": "Vancomycin MIC during combined treatment with peptide", "setting": "MDRAB 12035; [2]", "value": ">128", "unit": "µg/mL"}, {"measurement": "Erythromycin MIC during combined treatment with peptide", "setting": "MDRAB 12035; [3]", "value": 16, "unit": "µg/mL"}, {"measurement": "Linezolid MIC during combined treatment with peptide", "setting": "MDRAB 12035; [3]", "value": 64, "unit": "µg/mL"}, {"measurement": "Vancomycin MIC during combined treatment with peptide", "setting": "MDRAB 12035; [3]", "value": 128, "unit": "µg/mL"}, {"measurement": "Erythromycin MIC during combined treatment with peptide", "setting": "MDRAB 12035; [4]", "value": 4, "unit": "µg/mL"}, {"measurement": "Linezolid MIC during combined treatment with peptide", "setting": "MDRAB 12035; [4]", "value": 32, "unit": "µg/mL"}, {"measurement": "Vancomycin MIC during combined treatment with peptide", "setting": "MDRAB 12035; [4]", "value": 32, "unit": "µg/mL"}]}
